Experimental data from patent publication US20250268821A1 (AVALYN PHARMA INC., priority 2022, published 2025).
Read-outs that look alike come from different tables or passages of the source. Each block holds one molecule with its values, some of them ahead of it.

Key:
[1] = Particle size distribution by laser diffraction (Malvern Mastersizer 3000); type: physicochemical; conditions: for PSD D10 / PSD D50 / PSD D90: micronised API after jet milling
Method: Particle size distribution was measured using a Malvern Mastersizer 3000. The sample for analysis (10 mg) was suspended in 0.1% lecithin in isooctane (10 mL) and sonicated to disperse the particles prior to measurement. A single sample was prepared for each measurement.
Two batches were prepared and particle size distribution measured using a Mastersizer 3000 (Table 8).

[2] = Moisture content by Karl Fischer coulometry; type: physicochemical
Method: Three assay determinations were made for each assay and the mean value reported. Moisture content was measured by Karl Fischer coulometry using a Metrohm 851 Tritrando coulometer and sample oven. 50 mg of each sample was heated to 80° C. Lactose monohydrate was used as a bracketing standard. Single measurements were made for each sample. The emitted dose was measured using Dosage Unit Sampling Apparatus (DUSA) at 100 L/min. The samples were recovered using 50 mL of diluent. Ten determinations were performed and mean value reported

[3] = SEM, XRPD and overall stability assessment of micronised drug substance; type: physicochemical; conditions: 1 month 25°C/60% RH and 40°C/75% RH, then four months laboratory conditions
Method: Scanning electron microscopy and x-ray powder diffraction were performed at the University of Bath.
SEM images were recorded (FIGS. 1 and 2) and the polymorphic stability was assessed by XRPD (FIGS. 3 and 4) and DSC (FIG. 6). The characterization was then repeated after a further four months at laboratory conditions.

Lyn = Lyn (Homo sapiens, UniProt P07948); conditions: cited from earlier work
Lyn, sequence (P07948 whole entry, species assumed): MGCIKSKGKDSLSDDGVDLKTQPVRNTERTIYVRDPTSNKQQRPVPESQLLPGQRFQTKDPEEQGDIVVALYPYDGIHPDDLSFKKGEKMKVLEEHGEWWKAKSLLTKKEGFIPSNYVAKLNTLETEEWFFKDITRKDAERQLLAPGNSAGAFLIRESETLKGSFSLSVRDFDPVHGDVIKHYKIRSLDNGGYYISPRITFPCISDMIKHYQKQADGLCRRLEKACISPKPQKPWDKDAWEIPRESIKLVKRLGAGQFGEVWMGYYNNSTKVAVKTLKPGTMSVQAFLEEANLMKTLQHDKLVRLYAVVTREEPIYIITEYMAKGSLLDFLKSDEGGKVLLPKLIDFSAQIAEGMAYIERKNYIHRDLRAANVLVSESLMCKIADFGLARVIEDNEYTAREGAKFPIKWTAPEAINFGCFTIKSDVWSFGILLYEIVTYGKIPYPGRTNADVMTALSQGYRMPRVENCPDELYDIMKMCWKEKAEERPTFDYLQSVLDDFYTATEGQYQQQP

[4] = in vivo; cited from earlier work
[5] = Clinical study in healthy volunteers: inhaled nebulized vs oral nintedanib (ELF and plasma pharmacokinetics, safety); type: in vivo; conditions: human
Text: To characterize how dry powder nintedanib may perform in humans, a clinical study was first conducted comparing inhaled nebulized and oral nintedanib in healthy volunteers.

Src = Src (Homo sapiens, UniProt P12931); conditions: cited from earlier work
Src, sequence (P12931 whole entry, species assumed): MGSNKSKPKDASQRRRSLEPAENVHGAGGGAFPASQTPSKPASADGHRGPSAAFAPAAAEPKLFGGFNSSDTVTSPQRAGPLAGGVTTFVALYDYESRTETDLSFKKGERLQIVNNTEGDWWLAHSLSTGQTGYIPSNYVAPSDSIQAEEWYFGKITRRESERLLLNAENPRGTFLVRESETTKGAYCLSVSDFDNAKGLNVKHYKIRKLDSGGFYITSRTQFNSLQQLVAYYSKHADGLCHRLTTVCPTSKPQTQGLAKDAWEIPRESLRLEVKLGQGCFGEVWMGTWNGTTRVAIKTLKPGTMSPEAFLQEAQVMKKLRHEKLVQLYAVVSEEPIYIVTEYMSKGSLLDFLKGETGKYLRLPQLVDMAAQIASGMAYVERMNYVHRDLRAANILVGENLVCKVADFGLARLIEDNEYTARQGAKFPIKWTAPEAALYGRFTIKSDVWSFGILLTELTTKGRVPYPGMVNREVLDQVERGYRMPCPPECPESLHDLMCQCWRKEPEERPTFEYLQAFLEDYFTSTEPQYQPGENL

[6] = Pirfenidone-nintedanib interaction: physical stability of nintedanib solution in 67 mM sodium chloride; type: physicochemical; conditions: 0.25 mg/mL nintedanib, about 67 mM sodium chloride
Flt-3 = molecular target: T1, Flt-3 (Homo sapiens, UniProt P36888); conditions: cited from earlier work
T1 sequence (P36888 27-993): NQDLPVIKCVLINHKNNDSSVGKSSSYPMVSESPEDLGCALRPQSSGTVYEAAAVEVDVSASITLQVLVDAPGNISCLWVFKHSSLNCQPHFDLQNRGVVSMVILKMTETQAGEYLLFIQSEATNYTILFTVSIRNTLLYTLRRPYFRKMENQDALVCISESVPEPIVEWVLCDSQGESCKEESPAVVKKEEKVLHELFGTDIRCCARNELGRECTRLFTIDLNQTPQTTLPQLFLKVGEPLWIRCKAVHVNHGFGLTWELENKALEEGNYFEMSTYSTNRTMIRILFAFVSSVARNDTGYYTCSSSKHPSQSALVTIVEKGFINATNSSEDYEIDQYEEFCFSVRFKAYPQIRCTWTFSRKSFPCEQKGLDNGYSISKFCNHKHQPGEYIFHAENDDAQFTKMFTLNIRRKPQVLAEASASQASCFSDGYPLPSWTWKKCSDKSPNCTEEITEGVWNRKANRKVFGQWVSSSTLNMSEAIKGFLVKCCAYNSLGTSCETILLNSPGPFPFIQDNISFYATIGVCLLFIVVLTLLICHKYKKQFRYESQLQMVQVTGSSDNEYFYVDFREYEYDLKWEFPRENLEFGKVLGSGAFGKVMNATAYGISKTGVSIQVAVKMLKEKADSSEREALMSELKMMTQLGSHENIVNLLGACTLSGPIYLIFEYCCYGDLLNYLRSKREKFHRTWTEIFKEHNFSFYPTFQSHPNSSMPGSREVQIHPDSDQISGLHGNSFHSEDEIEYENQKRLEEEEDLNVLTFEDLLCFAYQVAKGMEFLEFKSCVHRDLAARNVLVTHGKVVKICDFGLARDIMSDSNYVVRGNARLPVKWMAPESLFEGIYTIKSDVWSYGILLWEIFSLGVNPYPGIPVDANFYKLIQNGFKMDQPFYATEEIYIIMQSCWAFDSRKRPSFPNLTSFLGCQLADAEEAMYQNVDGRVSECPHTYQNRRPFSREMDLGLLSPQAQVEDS

[7] = Sheep pharmacokinetics (ELF and plasma): nebulized inhaled nintedanib, fixed combination with pirfenidone, oral nintedanib; type: in vivo; conditions: for Cmax / AUC / half-life / Tmax: female, Merino cross-bred, sheep
Method: All animals had received standard vaccinations and were treated orally with anthelminthic (in line with standard management practices) prior to arrival at the animal facility to eliminate any worm parasites before experimentation. Experimental animals were rotated between indoor small group pen housing and metabolism cages under controlled ambient conditions (20-22° C.) and maintained on a 12 h light/dark throughout the experimental period. […] All formulations used in this study were stored at room temperature (RT) and protected from light prior to use; drugs were prepared on day of use. Sheep arrived into the facility as one group and were acclimatized over 2-3 weeks (group housing to indoor cage/pens) prior to experimentation. […] Group 1 sheep also received Treatment 1b, an addition/modification to the original study protocol. Treatments were administered over Weeks 3-9 of the study; each experimental Treatment was performed over a one week period in either Group 1 or Group 2 sheep (e.g., one group received Treatment while the other group was rested). Group 1 and Group 2 sheep were allocated separate sampling schedules for peripheral blood and bronchoalveolar lavage fluid (BALF) collections (Table 16). For nebulized aerosol drug administration to the lungs (inhalation dosing), a lubricated cuffed endotracheal (ET) tube (Portex, 7.0-8.0 mm internal diameter) was inserted via the nasal passage (guided by a fibre-optic endoscope) into the trachea. […] Respiration was set to 20 breaths/min, 50% inspiration and a tidal volume of 350 mL. Filters (Hudson RCl, NC, USA) were placed in the expiratory line to collect any expired drug dose. Following drug administration all lines, filters and nebulizer components were rinsed with 50 mL sterile saline to collect any remaining or expired dose. Washout sample aliquots (500 μl) were frozen on dry ice in 1.5 mL Eppendorf tubes, then stored at −80° C. prior to shipment for drug content analyses. Oral drug administration (Treatment 3) followed the procedure as detailed below (oral dosing optimization). A feeding tube (7 mm internal diameter) was inserted via the nasal passage (guided by a fibre-optic endoscope) into the upper region of the esophagus. […] Blood samples collected prior to and following drug administration (Table 16) were placed into K3EDTA-coated tubes. […] BALF samples were collected prior to and following drug administration ([…]). Sampling was carried out by intra-lung infusion of 25 ml of sterile saline via a catheter through the biopsy port of the bronchoscope, followed by immediate retrieval of the BALF sample into the collection syringe. BALF was collected from separate lung segments/lobes to avoid contamination between sampling time-points: the right apical lobe (RA) was used for all pre-dose sampling and post-dose samples were collected from right middle (RM); right caudal (RC); left caudal (LC); left middle (LM); and left apical (LA) lung lobes. BALF sampling details (volumes, exact time of collection) were recorded and samples immediately frozen on dry ice, then stored at −80° C. prior to shipment for drug content analyses.

[8] = previously known; various salt forms; cited from earlier work
[9] = +4 months at laboratory conditions
[10] = inhaled nebulized, 2 mg, IPD = immediate post dose

PSD D10 [1]: 0.04 μm | PSD D50 [1]: 1.03 μm | PSD D90 [1]: 2.66 μm
Structure (SMILES): Br.COC(=O)c1ccc2c(c1)NC(=O)/C2=C(\Nc1ccc(N(C)C(=O)CN2CCN(C)CC2)cc1)c1ccccc1 [Batch 1]

PSD D10 [1]: 0.60 μm | PSD D50 [1]: 1.51 μm | PSD D90 [1]: 2.87 μm
Structure (SMILES): Br.COC(=O)c1ccc2c(c1)NC(=O)/C2=C(\Nc1ccc(N(C)C(=O)CN2CCN(C)CC2)cc1)c1ccccc1 [Batch 2]

D10 ([1]; 1 month 25/60): 0.6 mcm | D50 ([1]; 1 month 25/60): 1.6 mcm | D90 ([1]; 1 month 25/60): 3.0 mcm | D10 ([1]; 1 month 40/75): 0.6 mcm | D50 ([1]; 1 month 40/75): 1.5 mcm | D90 ([1]; 1 month 40/75): 2.6 mcm | D10 [1, 9]: 0.6 mcm | D50 [1, 9]: 1.5 mcm | D90 [1, 9]: 2.9 mcm | D10 ([1]; T0): 0.5 mcm | D50 ([1]; T0): 1.5 mcm | D90 ([1]; T0): 2.8 mcm | Water Content ([2]; 1 month 25/60): 5.3% | Water Content ([2]; 1 month 40/75): 5.2% | Water Content [2, 9]: 4.7% | Water Content ([2]; T0): 5.3% | stability of micronised drug substance (PSD, moisture, SEM, XRPD, DSC) [3]: did not change during the study
Structure (SMILES): COC(=O)c1ccc2c(c1)NC(=O)/C2=C(\Nc1ccc(N(C)C(=O)CN2CCN(C)CC2)cc1)c1ccccc1 [Micronised Nintedanib HBr]

pirfenidone parts per 1 part nintedanib (weight by weight) that stabilizes nintedanib in solution [6]: greater than 30 parts | Cmax ([7]; epithelial lining fluid (ELF), inhaled or intranasal, 0.06 mg/kg, inhaled nebulized liquid, 2 mg (0.06 mg/kg), read-out: ELF Cmax): 7380 ng/mL | Cmax ([7]; epithelial lining fluid (ELF), inhaled or intranasal, 0.06 mg/kg, inhaled nebulized monotherapy, 2 mg (0.06 mg/kg), Table 19, read-out: ELF Cmax): 7880 ng/mL | AUC ([7]; epithelial lining fluid (ELF), inhaled or intranasal, 2 mg, inhaled nebulized monotherapy, 2 mg, Table 19, read-out: ELF AUC): 7300 ng·h/mL | AUC ([7]; epithelial lining fluid (ELF), inhaled or intranasal, 2 mg, inhaled nebulized, 2 mg, read-out: ELF AUC): 5400 ng·h/mL | half-life ([7]; epithelial lining fluid (ELF), inhaled or intranasal, inhaled nebulized, 2 mg, read-out: ELF T1/2 (α) (converted)): 0.25 h | Cmax ([7]; epithelial lining fluid (ELF), po, 2.14 mg/kg, oral, 75 mg (2.14 mg/kg), 3 mg/mL in water, read-out: ELF Cmax): 74 ng/mL | AUC ([7]; epithelial lining fluid (ELF), po, 75 mg, oral, 75 mg, read-out: ELF AUC): 1200 ng·h/mL | half-life ([7]; epithelial lining fluid (ELF), oral, 75 mg, read-out: ELF T1/2 (converted)): 10 h | Tmax ([7]; epithelial lining fluid (ELF), oral, 75 mg, read-out: ELF Tmax): 10 h | AUC ([7]; plasma, inhaled or intranasal, 2 mg, inhaled nebulized monotherapy, 2 mg, Table 19, read-out: Plasma AUC): 4 ng·h/mL | Cmax ([7]; plasma, inhaled or intranasal, 2 mg, inhaled nebulized monotherapy, 2 mg, Table 19, read-out: Plasma Cmax): 3.9 ng/mL | AUC ([7]; plasma, inhaled or intranasal, 2 mg, inhaled nebulized, 2 mg, read-out: Plasma AUC): 7 ng·h/mL | Cmax ([7]; plasma, inhaled or intranasal, 2 mg, inhaled nebulized, 2 mg, read-out: Plasma Cmax): 5.9 ng/mL | half-life ([7]; plasma, inhaled or intranasal, inhaled nebulized, 2 mg, read-out: Plasma T1/2 (α) (converted)): 0.25 h | AUC ([7]; plasma, po, 75 mg, oral, 75 mg, read-out: Plasma AUC): 58 ng·h/mL | Cmax ([7]; plasma, po, 75 mg, oral, 75 mg, read-out: Plasma Cmax): 3.6 ng/mL | half-life ([7]; plasma, oral, 75 mg, read-out: Plasma T1/2 (converted)): 10 h | Tmax ([7]; plasma, oral, 75 mg, read-out: Plasma Tmax): 9 h | ELF Tmax [7, 10]: IPD^b | Plasma Tmax [7, 10]: IPD^b
Structure (SMILES): COC(=O)c1ccc2c(c1)NC(=O)/C2=C(\Nc1ccc(N(C)C(=O)CN2CCN(C)CC2)cc1)c1ccccc1 [Nintedanib, methyl (3Z)-3-[[4-[methyl-[2-(4-methylpiperazin-1-yl)acetyl]amino]anilino]-phenylmethylidene]-2-oxo-1H-indole-6-carboxylate]
inhibition (Lyn): inhibited | fraction of administered nintedanib excreted in the urine [4]: About 80% | AUC ([5]; epithelial lining fluid (ELF), inhaled or intranasal, inhaled nebulized liquid 2 mg, read-out: ELF AUC): 3400 ng·h/mL | Cmax ([5]; epithelial lining fluid (ELF), inhaled or intranasal, inhaled nebulized liquid 2 mg, read-out: ELF Cmax): 4660 ng/mL | AUC ([5]; epithelial lining fluid (ELF), oral tablet 150 mg, read-out: ELF AUC): 1200 ng·h/mL | Cmax ([5]; epithelial lining fluid (ELF), oral tablet 150 mg, read-out: ELF Cmax): 72.7 ng/mL | Tmax ([5]; plasma, inhaled or intranasal, inhaled nebulized liquid 2 mg): 0.2 h | AUC ([5]; plasma, inhaled or intranasal, inhaled nebulized liquid 2 mg, read-out: Plasma AUC): 4 ng·h/mL | Cmax ([5]; plasma, inhaled or intranasal, inhaled nebulized liquid 2 mg, read-out: Plasma Cmax): 2.8 ng/mL | Tmax ([5]; plasma, oral tablet 150 mg): 7.8 h | AUC ([5]; plasma, oral tablet 150 mg, read-out: Plasma AUC): 163 ng·h/mL | Cmax ([5]; plasma, oral tablet 150 mg, read-out: Plasma Cmax): 13.5 ng/mL | inhibition (Src): inhibited | inhibition (Flt-3): inhibited | adverse responses to oral dosing ([7]; 75 mg oral with glucose chaser): without any adverse responses observed | sodium chloride concentration at which nintedanib is physically unstable in solution [8]: ≥ 30 mM
